Consider one compound from patent publication US10508092B2, “Synthesis of novel analogs of diptoindonesin G, compounds formed thereby, and pharmaceutical compositions containing them” (Wisconsin Alumni Research Foundation, priority 2016, dated 2019).

The subject of assay [1] is mouse splenic lymphocytes (T cells). The settings on record: concanavalin A induced proliferation of mouse splenic lymphocytes; cited from earlier work.
Assay [2] has as its target T1, CHIP ubiquitin E3 ligase (Homo sapiens, UniProt Q9UNE7).
T1 sequence (Q9UNE7 1-303): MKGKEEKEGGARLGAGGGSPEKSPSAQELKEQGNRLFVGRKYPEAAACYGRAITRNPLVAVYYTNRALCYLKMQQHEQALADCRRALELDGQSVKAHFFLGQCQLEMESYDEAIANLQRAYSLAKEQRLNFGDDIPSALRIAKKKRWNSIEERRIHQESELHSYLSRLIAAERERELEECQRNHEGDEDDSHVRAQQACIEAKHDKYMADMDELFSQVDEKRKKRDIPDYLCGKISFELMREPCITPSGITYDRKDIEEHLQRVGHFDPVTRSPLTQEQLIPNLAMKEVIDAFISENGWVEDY
The settings on record: Zhao et al. 2015; cited from earlier work.

Assay [3] concerns estrogen receptor β (ERβ). Conditions: breast cancer, Zhao et al. 2015; cited from earlier work.
Assay [4] concerns ERαY537S mutant protein. The experiment in a line: ELISA of ERα protein in T47D-ERαY537S cells. It counts as cell-based, human. Conditions: 24 hrs, FIG. 5. The method, then: T47D cells were treated with DMSO, Fulvestrant, Dip G and a Dip G derivative (Dip G-D1, compound 17) for 24 hrs. ERα protein amounts in cell lysate were quantified using ELISA kit (R&D systems) and normalized to standard curve using purified ERα protein. The experiments were performed in triplicate. Data are represented as mean±SD, n=3.
(T47D ERα WT is available from the American Type Culture Collection, Manassas, Va.; accession no. HTB-133. The T47D ERα Y537S cell line is described in Wardell et al 2015) “Efficacy of SERD/SERM Hybrid-CDK4/6 Inhibitor Combinations in Models of Endocrine Therapy-Resistant Breast Cancer,” Clin Cancer Res. 21(22):5121-5130. […] McCormack, P. and Sapunar, F. (2008) “Pharmacokinetic profile of the fulvestrant loading dose regimen in postmenopausal women with hormone receptor-positive advanced breast cancer,” Clinical breast cancer 8:347-351.
Background: In an ELISA, binding on a coated surface is turned into a signal by an enzyme label.

As for `O=C1c2c(O)cc(O)cc2-c2c(-c3ccc(O)cc3)oc3cc(O)cc1c23` [Dip G, diptoindonesin G], the immunosuppressant activity result in assay [1] is reported as “immunosuppressant activity”. The “target E3 ubiquitin ligase CHIP (STUB1)” value in assay [2] is recorded as “found to target”. The “stability of ERβ” value in assay [3] was “increases the stability”. For the same compound, the “degradation of ERαY537S mutant protein” value in assay [4] is reported as “more effective than 100 nM fulvestrant”.
